Experiments:
HCMV [1] = test: HCMV plaque reduction assay in HFF cells; assay type: cell-based, Human CMV (HCMV); details: HFF cells; plaque reduction
Method: (§1) Cells and viruses. The routine growth and passage of KB cells was performed in monolayer cultures using minimal essential medium (MEM) with either Hanks salts [MEM(H)] or Earle salts [MEM(E)] supplemented with 10% calf serum. The sodium bicarbonate concentration was varied to meet the buffering capacity required. Cultures of diploid human foreskin fibroblasts (HFF) or MRC-5 cells were grown in medium consisting of MEM(E) with 10% fetal bovine serum. Cells were passaged at 1:2 to 1:10 dilutions according to conventional procedures by using 0.05% trypsin plus 0.02% EDTA in a HEPES buffered salt solution (HBS) (Shipman, C., Jr., Proc. Soc. Exp. Biol. 130:305-310 (1969)) as described previously. Turk, S. R., et al., Antimicrob. Agents Chemother. 31:544-550 (1987). HFF and MRC-5 cells were passaged only at 1:2 dilutions. CEM cells were maintained in suspension culture as detailed previously. Kucera, L. S., et al., AIDS Res. Human Retroviruses 9:307-314 (1993).
(§2) Virological procedures. Stock HCMV was prepared by infecting HFF cells at a multiplicity of infection (m.o.i.) of <0.01 plaque-forming units (p.f.u.) per cell. Cell growth medium was changed every four days until cytopathology was evident in all cells (approximately 21 days). Supernatant fluids were retained as the virus stock. High titer HSV-1 stocks were prepared by infecting KB cells at an m.o.i. of <0.1 as detailed previously. Turk, S. R., et al., Antimicrob. Agents Chemother. 31:544-550 (1987). Virus titers were determined using monolayer cultures of HFF cells for HCMV and monolayer cultures of BSC-1 cells for HSV-1 as described earlier. Prichard, M. N., et al., J. Virol. Methods 28:101-106 (1990). Briefly, HFF or BSC-1 cells were planted as described above in 96-well cluster dishes and incubated overnight at 37° C. in a humidified 3% CO297% air atmosphere. The next day cultures were inoculated with HCMV or HSV-1 and serially diluted 1:3 across the remaining eleven columns of the 96-well plate. Cultures were incubated at 37° C. for 2 hr to permit virus adsorption and then virus inoculum was replaced with 0.2 mL of fresh medium. Cultures were incubated for seven days for HCMV, two or three days for HSV-1, medium was removed, and the cell sheets were stained with 0.1% crystal violet in 20% methanol. Plaques were enumerated under 20-fold magnification in wells having the dilution which gave 5 to 20 plaques per well. Virus titers were calculated according to the following Formula: Titer (p.f.u./mL)=number of plaques×5×3^n; where n represents the nth dilution of the virus used to infect the well in which plaques were enumerated.
(a) HCMV. The effect of compounds on the replication of HCMV has been measured using a plaque reduction assay. HFF cells in 24-well cluster dishes were infected with approximately 100 p.f.u. of HCMV per cm^2 cell sheet using the procedures detailed above. Following virus adsorption, compounds dissolved in growth medium were added to duplicate wells in three to six selected concentrations. Following incubation at 37° C. for 7 to 10 days, cell sheets were fixed, stained with crystal violet and microscopic plaques enumerated as described above. Drug effects were calculated as a percentage of reduction in number of plaques in the presence of each drug concentration compared to the number observed in the absence of drug. Ganciclovir (DHPG) was used as a positive control in all experiments.
(§3) Data Analysis. Dose-response relationships were constructed by linearly regressing the percent inhibition of parameters derived in the preceding sections against log drug concentrations. Fifty-percent inhibitory (IC50) concentrations were calculated from the regression lines. Samples containing positive controls (acyclovir for HSV-1, ganciclovir for HCMV, and 2-acetylpyridine thiosemicarbazone for cytotoxicity) were used in all assays.

HFF cells = test: Cytotoxicity in stationary HFF cells, microscopic inspection; assay type: cell-based, human
Method: as §1
(§4) Cytotoxicity assays. Two different assays were used to explore cytotoxicity of selected compounds as we have detailed previously. (i) Cytotoxicity produced in stationary HFF cells and in growing CEM cells was determined by microscopic inspection of cells used in plaque and RT assays which were not affected by the virus. Turk, S. R., et al., Antimicrob. Agents Chemother. 31:544-550 (1987). (ii) The effect of compounds during two population doublings of KB cells was determined by crystal violet staining and spectrophotometric quantitation of dye eluted from stained cells. Prichard, M. N., et al., Antimicrob. Agents Chemother. 35:1060-1065 (1991).
as §3

KB cells = test: Cytotoxicity in KB cells, growth over two population doublings; assay type: cell-based
Method: as §1, §4, §3

HCMV [2] = test: HCMV yield reduction assay in HFF cells; assay type: cell-based, Human CMV (HCMV); details: footnote says IC90
Method: as §2
The effect of compounds on the replication of HCMV also was measured using a yield reduction assay. HFF cells were planted as described above in 96-well cluster dishes, incubated overnight, medium removed and the cultures were inoculated with HCMV at a m.o.i. of 0.5 to 1 p.f.u. per cell as reported elsewhere. After virus adsorption, inoculum was replaced with 0.2 mL of fresh medium containing test compounds. The first row of 12 wells was left undisturbed and served as virus controls. Each well in the second row received an additional 0.1 mL of medium with test compound at three times the desired final concentration. The contents of the 12 wells were mixed by repeated pipetting and then serially diluted 1:3 along the remaining wells. In this manner, six compounds could be tested in duplicate on a single plate with concentrations from 100 μM to 0.14 μM. Plates were incubated at 37° C. for seven days, subjected to one cycle of freezing and thawing; aliquots from each of the eight wells of a given column were transferred to the first column of a fresh 96-well monolayer culture of HFF cells. Contents were mixed and serially diluted 1:3 across the remaining eleven columns of the secondary plate. Each column of the original primary plate was diluted across a separate plate in this manner. Cultures were incubated, plaques were enumerated, and titers calculated as described above.
as §3

[3] = Toxicity controls: uninfected mice given test compound; assay type: in vivo; details: 5.6, 16.7 and 50 mg/kg i.p. once daily for five days
Method: Compounds 1 (B=adenin-N^9-yl and guanin-N^9-yl) were evaluated in mice infected with murine cytomegalovirus (MCMV). Mice were infected intraperitonealy with sufficient MCMV to produce 90 to 100% mortality. Compounds were administered once daily for five days at doses of 5.6, 16.7 and 50 mg/kg by intraperitoneal injection in a 0.4% suspension of carboxymethylcellulose. Ganciclovir was administered in sterile water at the same doses as a positive control drug. All compounds were administered to separate groups of 15 mice each at 6, 24, and 48 hours after infection with MCMV. Groups of 10 uninfected mice also received test compounds as toxicity controls at the doses listed above.

CEM cells = test: Cytotoxicity in growing CEM cells, microscopic inspection; assay type: cell-based
Method: as §1, §4, §3

Question: What does the source list for Nc1ncnc2c1ncn2C=C1CC1CO (stereo not drawn) [1 (B = adenine), Example 5, syn-N^9-(2-hydroxymethylcyclopropylidenemethyl)adenine]?
Answer: IC50 (HCMV [1]): 2 µM; IC50 (HFF cells): > 100 µM; IC50 (KB cells): 82 µM; IC90 (HCMV [2]): 1.5 µM; deaths in uninfected mice that received only drug [3]: No deaths were observed; IC50 (CEM cells): > 100 µM
